How the values were obtained:
[1] = test system: Puccinia recondita f. sp. tritici; assay: Fungicidal activity against Puccinia recondita f. sp. tritici / wheat / leaf disc preventative (brown rust); type: in vivo; settings: foliar, 200 ppm in the applied formulation, wheat leaf segments cv. Kanzler, preventative (inoculated 1 day after application), assessed 7 to 9 days after application, read-out: disease control compared to untreated control leaf disks
How it was run: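 Wheat cv. Kanzler leaf segments on agar sprayed with formulated compound diluted in water, inoculated with P. recondita spores 1 day later. Incubated at 19C, 75% rh, 12 h light/12 h dark; scored 7 to 9 days after application as percent disease control versus untreated segments. Test rate 200 ppm.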

[2] = test system: Puccinia recondita f. sp. tritici; assay: Fungicidal activity against Puccinia recondita f. sp. tritici / wheat / leaf disc curative (brown rust); type: in vivo; settings: foliar, 200 ppm in the applied formulation, wheat leaf segments cv. Kanzler, curative (applied 1 day after inoculation), assessed 6 to 8 days after application, read-out: disease control compared to untreated control leaf disks
How it was run: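 Wheat cv. Kanzler leaf segments on agar, spore-inoculated, held dark at 19° C./75% RH; formulated compound in water sprayed 1 day post-inoculation (curative). Incubated 19° C., 75% RH, 12 h light/12 h dark; percent disease control vs untreated scored 6 to 8 days after application.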

Uromyces viciae-fabae = assay: Fungicidal activity against Uromyces viciae-fabae / field bean / leaf disc preventative (faba-bean rust); type: in vivo; settings: foliar, 288 h, 100 ppm in the applied formulation, field bean leaf discs, preventative (inoculated two hours after application), assessed 12 days after application, read-out: disease control compared to untreated control leaf discs
How it was run: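 Field bean leaf discs on water agar treated with 10 μl compound in acetone plus spreader, then spray-inoculated on the lower surface with Uromyces viciae-fabae spores 2 h later. Incubation at 22 °C, 18 h day, 70% RH; percent disease control versus untreated scored 12 days after application, compounds at 100 ppm.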

[3] = test system: Glomerella laqenarium (Colletotrichum lagenarium); assay: Fungicidal activity against Glomerella lagenarium (Colletotrichum lagenarium) liquid culture / cucumber / preventative (anthracnose); type: cell-based; settings: Colletotrichum orbiculare; 20 ppm in the applied formulation; liquid culture in PDB, 24° C., 3 to 4 days after application; read-out: disease control compared to untreated control (inhibition of growth measured photometrically)
How it was run: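 Cryostored conidia mixed into potato dextrose broth and added to test compound (from DMSO solution) in microtiter plates. Incubated at 24 °C; growth inhibition read photometrically 3 to 4 days after application, as percent activity versus untreated check.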

Phakopsora pachyrhizi = assay: Fungicidal activity against Phakopsora pachyrhizi / soybean / leaf disc preventative (Asian soybean rust); type: in vivo; settings: foliar, 200 ppm in the applied formulation, soybean leaf disks, preventative (inoculated one day after application), assessed 12 to 14 days after application, read-out: disease control compared to untreated control leaf disks
How it was run: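 Soybean leaf discs on water agar sprayed with formulated compound diluted in water; spore suspension sprayed on lower leaf surface one day later. Incubated 24-36 h dark at 20° C, 75% rh, then 20° C, 12 h light/day, 75% rh. Percent disease control versus untreated scored 12 to 14 days after application.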

CC(NC(=O)c1ccc(-c2noc(C(F)(F)F)n2)cc1F)C1CC1 (stereo not drawn) [Compound 2b.5, N-(1-cyclopropylethyl)-2-fluoro-4-[5-(trifluoromethyl)-1,2,4-oxadiazol-3-yl]benzamide]
≥ 80%: pest or weed control at 200 ppm [1] | pest or weed control at 200 ppm [2] | pest or weed control at 100 ppm (Uromyces viciae-fabae) | inhibition at 20 ppm [3] | pest or weed control at 200 ppm (Phakopsora pachyrhizi)

O=C(NCc1nccs1)c1ccc(-c2noc(C(F)(F)F)n2)cc1F [Compound 5b.19, 2-fluoro-N-(thiazol-2-ylmethyl)-4-[5-(trifluoromethyl)-1,2,4-oxadiazol-3-yl]benzamide]
≥ 80%: pest or weed control at 200 ppm [1] | pest or weed control at 200 ppm [2] | pest or weed control at 100 ppm (Uromyces viciae-fabae) | inhibition at 20 ppm [3] | pest or weed control at 200 ppm (Phakopsora pachyrhizi)

CN(Cc1cccs1)C(=O)c1ccc(-c2noc(C(F)(F)F)n2)cc1F [Compound 5b.2, 2-fluoro-N-methyl-N-(2-thienylmethyl)-4-[5-(trifluoromethyl)-1,2,4-oxadiazol-3-yl]benzamide]
≥ 80%: pest or weed control at 200 ppm [1] | pest or weed control at 200 ppm [2] | pest or weed control at 100 ppm (Uromyces viciae-fabae) | inhibition at 20 ppm [3] | pest or weed control at 200 ppm (Phakopsora pachyrhizi)

COc1ccc(CNC(=O)c2ccc(-c3noc(C(F)(F)F)n3)cc2)c(OC)c1 [Compound 4a.13, N-[(2,4-dimethoxyphenyl)methyl]-4-[5-(trifluoromethyl)-1,2,4-oxadiazol-3-yl]benzamide]
≥ 80%: pest or weed control at 200 ppm [1] | pest or weed control at 200 ppm [2] | pest or weed control at 100 ppm (Uromyces viciae-fabae) | inhibition at 20 ppm [3] | pest or weed control at 200 ppm (Phakopsora pachyrhizi)

Cc1ccc(CNC(=O)c2ccc(-c3noc(C(F)(F)F)n3)cc2F)o1 [Compound 5b.9, 2-fluoro-N-[(5-methyl-2-furyl)methyl]-4-[5-(trifluoromethyl)-1,2,4-oxadiazol-3-yl]benzamide]
≥ 80%: pest or weed control at 200 ppm [1] | pest or weed control at 200 ppm [2] | pest or weed control at 100 ppm (Uromyces viciae-fabae) | inhibition at 20 ppm [3] | pest or weed control at 200 ppm (Phakopsora pachyrhizi)

CN(CC1COCCO1)C(=O)c1ccc(-c2noc(C(F)(F)F)n2)cc1F (stereo not drawn) [Compound 1b.9, N-(1,4-dioxan-2-ylmethyl)-2-fluoro-N-methyl-4-[5-(trifluoromethyl)-1,2,4-oxadiazol-3-yl]benzamide]
≥ 80%: pest or weed control at 200 ppm [1] | pest or weed control at 200 ppm [2] | pest or weed control at 100 ppm (Uromyces viciae-fabae) | inhibition at 20 ppm [3] | pest or weed control at 200 ppm (Phakopsora pachyrhizi)

CN(CC(=O)NC(C)(C)C)C(=O)c1ccc(-c2noc(C(F)(F)F)n2)cc1 [Compound 3a.3, N-[2-(tert-butylamino)-2-oxo-ethyl]-N-methyl-4-[5-(trifluoromethyl)-1,2,4-oxadiazol-3-yl]benzamide]
≥ 80%: pest or weed control at 200 ppm [1] | pest or weed control at 200 ppm [2] | pest or weed control at 100 ppm (Uromyces viciae-fabae) | inhibition at 20 ppm [3] | pest or weed control at 200 ppm (Phakopsora pachyrhizi)

CN(Cc1ccccc1F)C(=O)c1ccc(-c2noc(C(F)(F)F)n2)cc1F [Compound 4b.9, 2-fluoro-N-[(2-fluorophenyl)methyl]-N-methyl-4-[5-(trifluoromethyl)-1,2,4-oxadiazol-3-yl]benzamide]
≥ 80%: pest or weed control at 200 ppm [1] | pest or weed control at 200 ppm [2] | pest or weed control at 100 ppm (Uromyces viciae-fabae) | inhibition at 20 ppm [3] | pest or weed control at 200 ppm (Phakopsora pachyrhizi)

O=C(NCC1COCCO1)c1ccc(-c2noc(C(F)(F)F)n2)cc1 (stereo not drawn) [Compound 1a.2, N-(1,4-dioxan-2-ylmethyl)-4-[5-(trifluoromethyl)-1,2,4-oxadiazol-3-yl]benzamide]
≥ 80%: pest or weed control at 200 ppm [1] | pest or weed control at 200 ppm [2] | pest or weed control at 100 ppm (Uromyces viciae-fabae) | inhibition at 20 ppm [3] | pest or weed control at 200 ppm (Phakopsora pachyrhizi)

O=C(NC1CCC1)c1ccc(-c2noc(C(F)(F)F)n2)cc1F [Compound 2b.3, N-cyclobutyl-2-fluoro-4-[5-(trifluoromethyl)-1,2,4-oxadiazol-3-yl]benzamide]
≥ 80%: pest or weed control at 200 ppm [1] | pest or weed control at 200 ppm [2] | pest or weed control at 100 ppm (Uromyces viciae-fabae) | inhibition at 20 ppm [3] | pest or weed control at 200 ppm (Phakopsora pachyrhizi)

O=C(NCc1ccco1)c1ccc(-c2noc(C(F)(F)F)n2)cc1F [Compound 5b.11, 2-fluoro-N-(2-furylmethyl)-4-[5-(trifluoromethyl)-1,2,4-oxadiazol-3-yl]benzamide]
≥ 80%: pest or weed control at 200 ppm [1] | pest or weed control at 200 ppm [2] | pest or weed control at 100 ppm (Uromyces viciae-fabae) | inhibition at 20 ppm [3] | pest or weed control at 200 ppm (Phakopsora pachyrhizi)

O=C(NCCc1cccs1)c1ccc(-c2noc(C(F)(F)F)n2)cc1F [Compound 5b.13, 2-fluoro-N-[2-(2-thienyl)ethyl]-4-[5-(trifluoromethyl)-1,2,4-oxadiazol-3-yl]benzamide]
≥ 80%: pest or weed control at 200 ppm [1] | pest or weed control at 200 ppm [2] | pest or weed control at 100 ppm (Uromyces viciae-fabae) | inhibition at 20 ppm [3] | pest or weed control at 200 ppm (Phakopsora pachyrhizi)

O=C(NC1CCCC1(F)F)c1ccc(-c2noc(C(F)(F)F)n2)cc1 (stereo not drawn) [Compound 2a.9, N-(2,2-difluorocyclopentyl)-4-[5-(trifluoromethyl)-1,2,4-oxadiazol-3-yl]benzamide]
≥ 80%: pest or weed control at 200 ppm [1] | pest or weed control at 200 ppm [2] | pest or weed control at 100 ppm (Uromyces viciae-fabae) | inhibition at 20 ppm [3] | pest or weed control at 200 ppm (Phakopsora pachyrhizi)

O=C(NCc1ccco1)c1ccc(-c2noc(C(F)(F)F)n2)cc1Cl [Compound 5b.17, 2-chloro-N-(2-furylmethyl)-4-[5-(trifluoromethyl)-1,2,4-oxadiazol-3-yl]benzamide]
≥ 80%: pest or weed control at 200 ppm [1] | pest or weed control at 200 ppm [2] | pest or weed control at 100 ppm (Uromyces viciae-fabae) | inhibition at 20 ppm [3] | pest or weed control at 200 ppm (Phakopsora pachyrhizi)

CN(Cc1ccc(Cl)nc1)C(=O)c1ccc(-c2noc(C(F)(F)F)n2)cc1 [Compound 5a.9, N-[(6-chloro-3-pyridyl)methyl]-N-methyl-4-[5-(trifluoromethyl)-1,2,4-oxadiazol-3-yl]benzamide]
≥ 80%: pest or weed control at 200 ppm [1] | pest or weed control at 200 ppm [2] | pest or weed control at 100 ppm (Uromyces viciae-fabae) | inhibition at 20 ppm [3] | pest or weed control at 200 ppm (Phakopsora pachyrhizi)

O=C(NCC1CC(F)(F)C1(F)F)c1ccc(-c2noc(C(F)(F)F)n2)cc1F (stereo not drawn) [Compound 2b.4, 2-fluoro-N-[(2,2,3,3-tetrafluorocyclobuty)methyl]-4-[5-(trifluoromethyl)-1,2,4-oxadiazol-3-yl]benzamide]
≥ 80%: pest or weed control at 200 ppm [1] | pest or weed control at 200 ppm [2] | pest or weed control at 100 ppm (Uromyces viciae-fabae) | inhibition at 20 ppm [3] | pest or weed control at 200 ppm (Phakopsora pachyrhizi)

O=C(NC1CCCSC1)c1ccc(-c2noc(C(F)(F)F)n2)cc1F (stereo not drawn) [Compound 1b.5, 2-fluoro-N-tetrahydrothiopyran-3-yl-4-[5-(trifluoromethyl)-1,2,4-oxadiazol-3-yl]benzamide]
≥ 80%: pest or weed control at 200 ppm [1] | pest or weed control at 200 ppm [2] | pest or weed control at 100 ppm (Uromyces viciae-fabae) | inhibition at 20 ppm [3] | pest or weed control at 200 ppm (Phakopsora pachyrhizi)

O=C(NCc1nccs1)c1ccc(-c2noc(C(F)(F)F)n2)cc1 [Compound 5a.10, N-(thiazol-2-ylmethyl)-4-[5-(trifluoromethyl)-1,2,4-oxadiazol-3-yl]benzamide]
≥ 80%: pest or weed control at 200 ppm [1] | pest or weed control at 200 ppm [2] | pest or weed control at 100 ppm (Uromyces viciae-fabae) | inhibition at 20 ppm [3] | pest or weed control at 200 ppm (Phakopsora pachyrhizi)

Reference: patent US10959432B2, “Microbiocidal oxadiazole derivatives” (Syngenta Participations AG, priority 2016, dated 2021)
